Source: patent US10287269B2, “Pyrazolyl pyrimidinone compounds as PDE2 inhibitors” (Merck Sharp & Dohme Corp., priority 2015, dated 2019)
Like-named read-outs stand apart in the source and are kept apart here.

Target: T1, Rhesus PDE2A3 (Macaca mulatta, UniProt B3VTJ2)
T1 construct: made in house; host or cells: AD293 cells, transient transfection, pcDNA3.3-TOPO; lysate supernatant used as enzyme
T1 sequence (B3VTJ2 1-941): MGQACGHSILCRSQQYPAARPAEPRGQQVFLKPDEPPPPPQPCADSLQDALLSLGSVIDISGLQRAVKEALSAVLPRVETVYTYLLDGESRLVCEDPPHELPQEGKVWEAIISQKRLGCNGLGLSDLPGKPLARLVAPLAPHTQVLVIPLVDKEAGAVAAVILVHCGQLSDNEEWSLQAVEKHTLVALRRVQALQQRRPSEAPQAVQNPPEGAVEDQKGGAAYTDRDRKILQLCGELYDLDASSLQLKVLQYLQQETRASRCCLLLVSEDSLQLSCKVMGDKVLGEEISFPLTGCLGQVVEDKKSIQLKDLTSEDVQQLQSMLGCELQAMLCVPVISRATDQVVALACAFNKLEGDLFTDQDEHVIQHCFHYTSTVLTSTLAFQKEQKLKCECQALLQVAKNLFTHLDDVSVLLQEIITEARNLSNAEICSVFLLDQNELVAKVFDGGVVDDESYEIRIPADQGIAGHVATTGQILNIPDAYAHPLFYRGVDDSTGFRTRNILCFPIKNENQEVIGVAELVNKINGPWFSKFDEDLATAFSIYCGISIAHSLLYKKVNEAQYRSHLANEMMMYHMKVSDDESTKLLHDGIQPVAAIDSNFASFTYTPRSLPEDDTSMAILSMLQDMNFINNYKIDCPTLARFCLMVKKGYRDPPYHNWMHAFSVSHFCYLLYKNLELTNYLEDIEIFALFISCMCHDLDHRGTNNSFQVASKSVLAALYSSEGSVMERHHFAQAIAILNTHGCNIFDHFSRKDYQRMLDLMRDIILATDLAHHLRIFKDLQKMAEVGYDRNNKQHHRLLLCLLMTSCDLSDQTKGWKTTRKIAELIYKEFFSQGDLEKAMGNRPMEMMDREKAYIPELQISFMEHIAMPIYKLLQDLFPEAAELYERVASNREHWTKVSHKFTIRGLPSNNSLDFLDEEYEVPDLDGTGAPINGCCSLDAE
Test: PDE2 fluorescence polarization (IMAP FP) inhibition assay, rhesus enzyme
Format: biochemical, rhesus macaque
Experimental: The activity of the compounds in accordance with the present invention as PDE2 inhibitors may be readily determined using a fluorescence polarization (FP) methodology (Huang, W., et al., J. Biomol Screen, 2002, 7: 215).
In a typical experiment the PDE2 inhibitory activity of the compounds of the present invention was determined in accordance with the following experimental method. Rhesus PDE2A3 was amplified from rhesus macaque brain cDNA (Biochain Institute, Hayward, Calif.) using primers based on human PDE2A sequence (accession NM_002599.3) where the forward primer containing a Kozak consensus was 5′-[…]-3′ and the reverse primer was 5′-[…]-3′. Amplification with Easy-A High-Fidelity PCR cloning enzyme (Stratagene, La Jolla, Calif.) was 95° C. for 2 minutes followed by thirty three cycles of 95° C. for 40 seconds, 52° C. for 30 seconds, and 72° C. for 2 minutes 48 seconds. Final extension was 72° C. for 7 minutes. The PCR product was TA cloned into pcDNA3.3-TOPO (Invitrogen, Carlsbad, Calif.) according to standard protocol. A consensus sequence was developed from multiple clones and then deposited into GenBank (EU812167). AD293 cells (Stratagene, La Jolla, Calif.) with 70-80% confluency were transiently transfected with rhesus PDE2A3/pcDNA3.3-TOPO using Lipofectamine 2000 according to manufacturer specifications (Invitrogen, Carlsbad, Calif.). Cells were harvested 48 hours post-transfection and lysed by sonication (setting 3, 10×5 sec pulses) in a buffer containing 20 mM HEPES pH 7.4, 1 mM EDTA and Complete Protease Inhibitor Cocktail Tablets (Roche, Indianapolis, Ind.). Lysate was collected by centrifugation at 75,000×g for 20 minutes at 4° C. and supernatant utilized for evaluation of PDE2 activity. The fluorescence polarization assay for cyclic nucleotide phosphodiesterases was performed using an IMAP® FP kit supplied by Molecular Devices, Sunnyvale, Calif. (product # R8139). […] Assays were performed at room temperature in 384-well microtiter plates with an incubation volume of 20.2 μL. Solutions of test compounds were prepared in DMSO and serially diluted with DMSO to yield 8 μL of each of 10 solutions differing by 3-fold in concentration, at 32 serial dilutions per plate. […] 0% of inhibition is determined by using DMSO (1% final concentrations).
A Labcyte Echo 555 (Labcyte, Sunnyvale, Calif.) is used to dispense 200 nL from each well of the titration plate to the 384 well assay plate. Ten microliters of a solution of enzyme (1/2000 final dilution from aliquots; sufficient to produce 20% substrate conversion) was added to the assay plate. Next 10 uL of a separate solution of the substrate FAM-labeled cAMP (50 nM final concentration product # R7506 from Molecular Devices) and the activator cGMP (1 uM final concentration), prepared in the assay buffer (10 mM Tris HCl, pH 7.2, 10 mM MgCl2, 0.05% NaN3 0.01% Tween-20, and 1 mM DTT) was added to the assay plate and shaken to mix. The reaction is allowed to proceed at room temperature for 60 minutes. A binding solution is then made from the kit components, comprised of 80% Solution A, 20% Solution B and binding reagent at a volume of 1/600 the total binding solution. The enzymatic reaction is stopped by addition of 60 μl, of the binding solution to each well of the assay plates and the plates are sealed and shaken for 30 seconds. The plate was incubated at room temperature for at least one hour prior to determining the fluorescence polarization (FP). The parallel and perpendicular fluorescence of each well of the plate was measured using a Tecan Genios Pro plate reader (Tecan, Switzerland) or Perkin Elmer EnVision™ plate reader (Waltham, Mass.). Fluorescence polarization (mP) was calculated from the parallel (S) and perpendicular (P) fluorescence of each sample well and the analogous values for the median control well, containing only substrate (So and Po), using the following equation: Polarization (mP)=1000*(S/So−P/Po)/(S/So+P/Po).

[1] = Lab B, read-out: Rhesus PDE2 Ki (nM) Lab B
[2] = Lab A, read-out: Rhesus PDE2 Ki (nM) Lab A

Work on `COC(=O)c1ccc(C(C)n2cc(-c3cc(=O)[nH]c(C)n3)cn2)cc1` (stereo not drawn) [Example 155, methyl 4-(1-(4-(2-methyl-6-oxo-1,6-dihydropyrimidin-4-yl)-1H-pyrazol-1-yl)ethyl)benzoate] yielded a Ki [1] of 3830 nM.

`Cc1nc(-c2cnn(C(C)c3ccc(C(F)(F)F)cc3C)c2)cc(=O)[nH]1` (single isomer, unassigned) [Example 56, (R)- or (S)-2-methyl-6-(1-(1-(2-methyl-4-(trifluoromethyl)phenyl)ethyl)-1H-pyrazol-4-yl)pyrimidin-4(3H)-one] showed a Ki [1] of 314 nM.

`Cc1nc(-n2cc(C(C)c3ccc(C(C)(C)C)cc3)cn2)cc(=O)[nH]1` (stereo not drawn) [Example 45, 6-(4-(1-(4-(tert-butyl)phenyl)ethyl)-1H-pyrazol-1-yl)-2-methylpyrimidin-4(3H)-one] gave a Ki [1] of 411 nM.

`Cc1nc(-c2cnn(C(C)c3ccc(C(F)(F)F)cc3C(F)(F)F)c2)cc(=O)[nH]1` (single isomer, unassigned) [Example 145, (S)- or (R)-6-(1-(1-(2,4-bis(trifluoromethyl)phenyl)ethyl)-1H-pyrazol-4-yl)-2-methylpyrimidin-4(3H)-one] gave a Ki [2] of 6810 nM.

`Cc1nc(-c2cnn(C(C)c3ccc(OC(F)F)cc3F)c2)cc(=O)[nH]1` (single isomer, unassigned) [Example 87, (R)- or (S)-6-(1-(1-(4-(difluoromethoxy)-2-fluorophenyl)ethyl)-1H-pyrazol-4-yl)-2-methylpyrimidin-4(3H)-one] showed a Ki [2] of 480 nM.

With `COCCc1ccc(C(C)c2cnn(-c3cc(=O)[nH]c(C)n3)c2)cc1` (stereo not drawn) [Example 41, 6-(4-(1-(4-(2-methoxyethyl)phenyl)ethyl)-1H-pyrazol-1-yl)-2-methylpyrimidin-4(3H)-one] the Ki [1] was 7300 nM.

`Cc1nc(-c2cnn(C(C)c3ccc(C(F)(F)F)cc3Cl)c2)cc(=O)[nH]1` (single isomer, unassigned) [Example 84, (S)- or (R)-6-(1-(1-(2-chloro-4-(trifluoromethyl)phenyl)ethyl)-1H-pyrazol-4-yl)-2-methylpyrimidin-4(3H)-one] showed a Ki [2] of 179 nM.

`Cc1nc(-n2cc(C(C)c3ccc(C(F)(F)F)c(F)c3)cn2)cc(=O)[nH]1` (single isomer, unassigned) [Example 50, (R)- or (S)-6-(4-(1-(3-fluoro-4-(trifluoromethyl)phenyl)ethyl)-1H-pyrazol-1-yl)-2-methylpyrimidin-4(3H)-one] gave a Ki [1] greater than 1000 nM.

Compound `Cc1nc(-n2cc(C(C)c3ccc4c(c3)CCOC4)cn2)cc(=O)[nH]1` (stereo not drawn) [Example 42, 6-(4-(1-(isochroman-6-yl)ethyl)-1H-pyrazol-1-yl)-2-methylpyrimidin-4(3H)-one] has a Ki [1] of 2620 nM.

Compound `Cc1nc(-c2ccn(C(C)c3ccccc3)n2)cc(=O)[nH]1` (stereo not drawn) [Example 158, 2-methyl-6-(1-(1-phenylethyl)-1H-pyrazol-3-yl)pyrimidin-4(3H)-one] has a Ki [1] of 18500 nM.

`Cc1ccc(C(C)n2cc(-c3cc(=O)[nH]c(C)n3)cn2)c(F)c1` (single isomer, unassigned) [Example 150, (R)- or (S)-6-(1-(1-(2-fluoro-4-methylphenyl)ethyl)-1H-pyrazol-4-yl)-2-methylpyrimidin-4(3H)-one] gave a Ki [2] of 695 nM.

`COCc1ccc(C(C)n2cc(-c3cc(=O)[nH]c(C)n3)cn2)c(F)c1` (single isomer, unassigned) [Example 97, (R)- or (S)-6-(1-(1-(2-fluoro-4-(methoxymethyl)phenyl)ethyl)-1H-pyrazol-4-yl)-2-methylpyrimidin-4(3H)-one] gave a Ki [2] of 464 nM.

`Cc1nc(-c2cnn(C(C)c3ccc(OC(F)(F)F)cc3F)c2)cc(=O)[nH]1` (single isomer, unassigned) [Example 58, (R)- or (S)-6-(1-(1-(2-fluoro-4-(trifluoromethoxy)phenyl)ethyl)-1H-pyrazol-4-yl)-2-methylpyrimidin-4(3H)-one] was tested, and the Ki [1] was 256 nM.

Compound `Cc1nc(-c2cnn(C(C)c3ccccc3)c2)cc(=O)[nH]1` (stereo not drawn) [Example 156, 2-methyl-6-(1-(1-phenylethyl)-1H-pyrazol-4-yl)pyrimidin-4(3H)-one] has a Ki [1] of 4890 nM.

`Cc1nc(-c2ccnn2C(C)c2ccc(C(F)(F)F)cc2)cc(=O)[nH]1` (stereo not drawn) [Example 74, 2-methyl-6-(1-(1-(4-(trifluoromethyl)phenyl)ethyl)-1H-pyrazol-5-yl)pyrimidin-4(3H)-one] was tested, and the Ki [1] was 11000 nM.

In the case of `Cc1nc(-c2cnn(C(C)c3ccc(OC(F)F)cc3C)c2)cc(=O)[nH]1` (single isomer, unassigned) [Example 90, (S)- or (R)-6-(1-(1-(4-(difluoromethoxy)-2-methylphenyl)ethyl)-1H-pyrazol-4-yl)-2-methylpyrimidin-4(3H)-one], the Ki [2] is reported as 150 nM.

Compound `CCCc1ccc(C(C)c2cnn(-c3cc(=O)[nH]c(C)n3)c2)cc1` (stereo not drawn) [Example 43, 2-methyl-6-(4-(1-(4-propylphenyl)ethyl)-1H-pyrazol-1-yl)pyrimidin-4(3H)-one] has a Ki [1] of 313 nM.

`CCc1ccc(C(C)n2cc(-c3cc(=O)[nH]c(C)n3)cn2)c(Cl)c1` (single isomer, unassigned) [Example 100, (S)- or (R)-6-(1-(1-(2-chloro-4-ethylphenyl)ethyl)-1H-pyrazol-4-yl)-2-methylpyrimidin-4(3H)-one] was tested, and the Ki [2] was 384 nM.

`Cc1nc(-c2cnn(C(C)c3ccc(C4CC4)cc3C)c2)cc(=O)[nH]1` (single isomer, unassigned) [Example 93, (R)- or (S)-6-(1-(1-(4-cyclopropyl-2-methylphenyl)ethyl)-1H-pyrazol-4-yl)-2-methylpyrimidin-4(3H)-one] showed a Ki [2] of 706 nM.

With `COCc1ccc(C(C)n2cc(-c3cc(=O)[nH]c(C)n3)cn2)c(Cl)c1` (single isomer, unassigned) [Example 103, (R)- or (S)-6-(1-(1-(2-chloro-4-(methoxymethyl)phenyl)ethyl)-1H-pyrazol-4-yl)-2-methylpyrimidin-4(3H)-one] the Ki [2] was 106 nM.

`Cc1ccc(C(C)n2cc(-c3cc(=O)[nH]c(C)n3)cn2)c(Cl)c1` (single isomer, unassigned) [Example 149, (S)- or (R)-6-(1-(1-(2-chloro-4-methylphenyl)ethyl)-1H-pyrazol-4-yl)-2-methylpyrimidin-4(3H)-one] showed a Ki [2] of 954 nM.
